Source: patent US20210228531A1, “TARGETED TREATMENT OF AUTISM SPECTRUM DISORDER AND OTHER NEUROLOGICAL OR PSYCHIATRIC DISORDERS” (Tufts Medical Center, Inc., priority 2018, published 2021)

Tests used:
[1] = after IP or oral administration; cited from earlier work
[2] = system: vascular endothelial growth factor (VEGF); details: Jeong et al. 2011; cited from earlier work
[3] = system: glucose transporter 1 (GLUT-1); details: Jeong et al. 2011; cited from earlier work
[4] = clinical trials (U.S. Pat. No. 3,995,061); cited from earlier work
hnRNP L [5] = test: Western Blot analysis of hnRNP L in cultured rat primary cortical neurons; format: cell-based
Source text: Compounds that modify hnRNP L levels are useful for the development of ASD/mental retardation/neurological disorders.

hnRNP L [6] = details: cited from earlier work
BIN1 = details: human osteosarcoma cells (U2OS), proteome analysis; cited from earlier work
[7] = human osteosarcoma cells (U2OS), proteome analysis

| SMILES | toxicity as assessed by LD50 [1] | expression of VEGF [2] | expression of GLUT-1 [3] | tolerability in clinical trials [4] | levels of hnRNP L (hnRNP L [5]) | increase in hnRNP L levels (hnRNP L [6]; [7]) [x] | increase in the levels of three proteins, including hnRNP L and BIN1 (hnRNP L [6]; [7]) [fold] | hnRNP L protein levels in vitro (hnRNP L [6]; in vitro (Kang et al. 2006)) | increase in BIN1 levels (BIN1) [x] |
| --- | --- | --- | --- | --- | --- | --- | --- | --- | --- |
| CCOc1c(Cl)c(C)c(C=O)c(O)c1C/C=C(C)/C=C/C1(C)C(C)CCC(=O)C1C (stereo not shown) [4-O-ethyl-ascochlorin, 4-O-ethylascochlorin] | low toxicity |  |  |  |  |  |  |  |  |
| COc1c(Cl)c(C)c(C=O)c(O)c1C/C=C(C)/C=C/[C@@]1(C)[C@H](C)CCC(=O)[C@@H]1C [MAC, 4-O-methylascochlorin] | low toxicity | increases the expression | increases the expression | well tolerated |  |  |  |  |  |
| CC(/C=C/[C@@]1(C)[C@H](C)CCC(=O)[C@@H]1C)=C\Cc1c(O)c(Cl)c(C)c(C=O)c1O [ascochlorin] |  |  |  |  | increased levels of hnRNP L | 12 | ≥ 10 | increase hnRNP L protein levels | 10 |
